{"source": "paper PMC8198792", "about": "“Prediction of Anticancer Peptides with High Efficacy and Low Toxicity by Hybrid Model Based on 3D Structure of Peptides” (International Journal of Molecular Sciences, 2021)", "key": {"[1]": {"test_system": "Human breast cancer cell line (MCF7)", "type": "cell-based", "conditions": "MTT assay, 6000 cells per well, peptides 0.5-128 μM for 24 h, triplicate, absorbance 570 and 630 nm; read-out: IC50 (μM) MCF7", "description": "(§1) Five peptides were randomly selected from the candidate ACPs and synthesized by Changzhou Kanglong Biotech Ltd (Changzhou, China). using 9-fuorenylmethoxy carbonyl (FMOC) solid phase synthesis technology. The synthetic peptide was identified by mass spectrometry (MS), and the purity >95% by high performance liquid chromatography (HPLC). Human breast cancer cell line (MCF7), lung cancer cell line (A549), cervical cancer cell line (HeLa), colorectal adenocarcinoma cell line (LoVo) and human embryonic kidney cells (293T) were preserved in our laboratory. At 37 °C under 5/95% CO2/air condition, all cell lines were cultured in Dulbecco’s modified Eagle medium (DMEM) supplemented with 10% (v/v) fetal bovine serum (FBS, Gibco, Carlsbad, CA, USA) and 1% (v/v) penicillin/streptomycin (Sangon Biotech, Shanghai, China).\n(§2) Human tumor cell lines MCF7, A549, HeLa and LoVo were used as experimental materials to detect the anticancer activity of peptides by MTT assay. In addition, human embryonic kidney cells 293T were also included in the experiment to examine the safety of the peptide against non-cancerous cells. […] Untreated cells as negative control group incubated with corresponding medium for 24 h. Subsequently, 10 uL, 5 mg/mL MTT (Sangon Biotech, Shanghai, China) solution was added to each well and incubated for 4 h at 37 °C. After the medium was discarded, 150 μL DMSO was added to each well for 10 min to dissolve formazan crystals. Absorbance was measured at 570 and 630 nm using a multiwall plate reader and the inhibition rate was expressed as the mean ± standard deviation (SD) of the triplicate data."}, "[2]": {"test_system": "human embryonic kidney cells (293T)", "test": "MTT assay on non-cancerous cells, 293T", "type": "cell-based", "description": "as §1, §2"}, "[3]": {"test_system": "colorectal adenocarcinoma cell line (LoVo)", "type": "cell-based, human", "conditions": "MTT assay, 6000 cells per well, peptides 0.5-128 μM for 24 h, triplicate, absorbance 570 and 630 nm; read-out: IC50 (μM) LoVo", "description": "as §1, §2"}, "[4]": {"test_system": "cervical cancer cell line (HeLa)", "type": "cell-based, human", "conditions": "MTT assay, 6000 cells per well, peptides 0.5-128 μM for 24 h, triplicate, absorbance 570 and 630 nm; read-out: IC50 (μM) HeLa", "description": "as §1, §2"}, "[5]": {"test_system": "lung cancer cell line (A549)", "type": "cell-based, human", "description": "as §1, §2"}, "[6]": {"test_system": "2% sheep red blood cells (SRBC)", "test": "Hemolysis assay", "type": "cell-based", "method": "The 2% sheep red blood cells (SRBC) were purchased from Nanjing Senbeijia Biological Technology Co., Ltd (Nangjing, China). A total of 4 mL of 2% SRBC was taken, rinsed twice with 4 mL of PBS by centrifugation for 5 min at 3000 rpm and the precipitates were resuspended in 4 mL of PBS. We added 100 μL of 2% SRBC to each well of the 96-well plate and then added 100 μL peptide solutions of different concentrations (2, 4, 8, 16, 32, 64, 128 and 256 μM) in triplicate at 37 °C for 1 h. 100 μL of PBS buffer and 100 uL of Triton X-100 0.1% (w/v) were mixed with SRBC as negative and positive controls, respectively. All samples were centrifuged at 3000 rpm for 5 min, 100 μL supernatant was collected and transferred to a new 96-well plate, and its absorbance was measured at 540 nm. The calculation formula of hemolysis rate is as follows. (5) % Hemolysis=absorbancesample-absorbancenegative/absorbancepositive-absorbancenegative×100"}}, "note": "Bridge positions count the residues as written; N and C are the ends. Peptide text beside a SMILES is read from it."}
{"smiles": "CC[C@H](C)[C@H](NC(=O)[C@H](CC(C)C)NC(=O)[C@H](CC(C)C)NC(=O)[C@H](CC(=O)O)NC(=O)[C@H](CCCCN)NC(=O)[C@@H](NC(=O)[C@H](C)NC(=O)CNC(=O)[C@H](CC(C)C)NC(=O)[C@@H](NC(=O)CN)C(C)C)C(C)C)C(=O)NCC(=O)N[C@@H](C)C(=O)NCC(=O)N[C@@H](CCCCN)C(=O)N[C@@H](CO)C(=O)N[C@@H](C)C(=O)N[C@@H](C)C(=O)N[C@@H](CCC(N)=O)C(=O)N[C@@H](CO)C(=O)N[C@H](C(=O)N[C@@H](CC(C)C)C(=O)N[C@@H](CCCCN)C(=O)N[C@H](C(=O)N[C@@H](CC(C)C)C(=O)N[C@@H](CO)C(=O)N[C@H]1CSSC[C@@H](C(=O)O)NC(=O)[C@H](CC(=O)O)NC(=O)[C@H](CC(N)=O)NC(=O)[C@H](CO)NC(=O)[C@H](CC(C)C)NC(=O)[C@H](CCCCN)NC1=O)[C@@H](C)O)C(C)C", "note": "[Odorranain-C1] (H-GVLGAVKDLLIGAGKSAAQSVLKTLSCKLSNDC-OH; disulfide 27-33)", "values": [{"measurement": "IC50", "setting": "[1]", "result": 41.2, "unit": "µM"}, {"measurement": "toxicity to 293T cells (in words)", "setting": "[2]; low toxicity when the IC50 value exceeded 50 μM, MTT, 24 h", "result": "certain toxicity"}, {"measurement": "IC50", "setting": "[2]; non-cancerous cells, MTT assay, 6000 cells per well, peptides 0.5-128 μM for 24 h, triplicate, absorbance 570 and 630 nm, read-out: IC50 (μM) 293T", "result": 48.7, "unit": "µM"}, {"measurement": "IC50", "setting": "[3]", "result": 55.2, "unit": "µM"}, {"measurement": "IC50", "setting": "[4]", "result": 52.8, "unit": "µM"}, {"measurement": "IC50", "setting": "[5]; MTT assay, 6000 cells per well, peptides 0.5-128 μM for 24 h, triplicate, absorbance 570 and 630 nm, read-out: IC50 (μM) A549", "result": 27.3, "unit": "µM"}, {"measurement": "killing effects on lung cancer cell A549 (in words)", "setting": "[5]; MTT, 24 h, anticancer activity when IC50 less than 50 μM", "result": "effective killing effects"}, {"measurement": "hemolysis (in words)", "setting": "[6]; hemolytic rate of 100 μM peptides more than 10% as the classification standard, 2% sheep erythrocytes", "result": "no hemolysis"}, {"measurement": "Hemolytic effect on 2% sheep erythrocytes, peptide concentration 2 μM", "setting": "[6]; peptide 2 μM, 2% SRBC in PBS, 37 °C, 1 h, absorbance 540 nm, triplicate", "result": "− (The “−” symbol indicates the hemolysis rate of less than 10% at peptides concentration of 100 μM)"}, {"measurement": "Hemolytic effect on 2% sheep erythrocytes, peptide concentration 4 μM", "setting": "[6]; peptide 4 μM, 2% SRBC in PBS, 37 °C, 1 h, absorbance 540 nm, triplicate", "result": "− (The “−” symbol indicates the hemolysis rate of less than 10% at peptides concentration of 100 μM)"}, {"measurement": "Hemolytic effect on 2% sheep erythrocytes, peptide concentration 8 μM", "setting": "[6]; peptide 8 μM, 2% SRBC in PBS, 37 °C, 1 h, absorbance 540 nm, triplicate", "result": "− (The “−” symbol indicates the hemolysis rate of less than 10% at peptides concentration of 100 μM)"}, {"measurement": "Hemolytic effect on 2% sheep erythrocytes, peptide concentration 16 μM", "setting": "[6]; peptide 16 μM, 2% SRBC in PBS, 37 °C, 1 h, absorbance 540 nm, triplicate", "result": "− (The “−” symbol indicates the hemolysis rate of less than 10% at peptides concentration of 100 μM)"}, {"measurement": "Hemolytic effect on 2% sheep erythrocytes, peptide concentration 32 μM", "setting": "[6]; peptide 32 μM, 2% SRBC in PBS, 37 °C, 1 h, absorbance 540 nm, triplicate", "result": "− (The “−” symbol indicates the hemolysis rate of less than 10% at peptides concentration of 100 μM)"}, {"measurement": "Hemolytic effect on 2% sheep erythrocytes, peptide concentration 64 μM", "setting": "[6]; peptide 64 μM, 2% SRBC in PBS, 37 °C, 1 h, absorbance 540 nm, triplicate", "result": "− (The “−” symbol indicates the hemolysis rate of less than 10% at peptides concentration of 100 μM)"}, {"measurement": "Hemolytic effect on 2% sheep erythrocytes, peptide concentration 128 μM", "setting": "[6]; peptide 128 μM, 2% SRBC in PBS, 37 °C, 1 h, absorbance 540 nm, triplicate", "result": "− (The “−” symbol indicates the hemolysis rate of less than 10% at peptides concentration of 100 μM)"}, {"measurement": "Hemolytic effect on 2% sheep erythrocytes, peptide concentration 256 μM", "setting": "[6]; peptide 256 μM, 2% SRBC in PBS, 37 °C, 1 h, absorbance 540 nm, triplicate", "result": "− (The “−” symbol indicates the hemolysis rate of less than 10% at peptides concentration of 100 μM)"}]}
